# Data taken from patent US20050124684A1, “5-(hydroxymethyl) furfural and derivatives as inhibitors of TNFalpha and IL-1beta production” (priority 2003, published 2005).
# Assays:
# [1] = test system: TNFα; assay: Inhibition of LPS-induced TNFα expression in PBMCs (ELISA); assay type: cell-based; conditions: LPS-stimulated PBMCs; for Concentration of TNFα in PBMCs / Inhibition ratio of production of TNFα in PBMCs: overnight
# Method: (§1) Peripheral blood […] (PBMCs) were isolated from fresh blood using a Ficoll-Paque Plus reagent (Amersham Bioscience) according to the protocol recommended by the manufacturer. The cells were suspended in a RPMI 1640 medium containing 10% FBS at a concentration of 1×10^5 cells/ml and seeded in a 96-well plate (1×10^4 cells total in each well). Each reaction was carried out in three wells. […] In a positive control, dexamethason (DEX), an anti-inflammatory agent, instead of 5-HMF, was added (final concentration 10 μM). In a positive control, 10 μl of the medium, instead of 5-HMF, was added. The plate was incubated at 37° C. under 5% CO2 for 15 minutes. After 10 μl aliquots of 100 μg/ml of lipopolysaccharide (LPS) were added to all wells except for the negative control, the plate was incubated at 37° C. under 5% CO2 overnight. The plate was spun at 1000 rpm for 15 minutes and the supernatants were collected. The concentrations of TNFα and IL-1β were measured by the TNFα ELISA (Enzyme Linked Immunosorbent Assay) Kit and IL1-β ELISA Kit (Jingmei Bioengineer Technology). The inhibition ratios of TNFα and IL1-β were calculated as follows and the results are shown in Tables 1 and 2: TNFα Inhibition Ratio (%)=[TNFα]control−[TNFα]5-HMF/[TNFα]control×100% IL1-β Inhibition Ratio (%)=[IL1-β]control−[IL1-β]5-HMF/[IL1-β]control×100% where [TNFα]5-HMF is the concentration of TNFα in PBMCs treated with 5-HMF and LPS, [TNFα]control is the concentration of TNFα in PBMCs treated with LPS and the medium, [IL1-β]5-HMF is the concentration of IL1-β in PBMCs treated with 5-HMF and LPS, and [IL1-β]control is the concentration of IL1-β in PBMCs treated with LPS and the medium.
# [2] = test system: IL-1β; assay: Inhibition of LPS-induced IL-1β expression in PBMCs (ELISA); assay type: cell-based; conditions: LPS-stimulated PBMCs; for Concentration of IL-1β in PBMCs / Inhibition ratio of production of IL-1β in PBMCs: overnight
# Method: as §1
# [3] = at the concentration of 300 μg/ml
compound,measurement,setting,value
"O=Cc1ccc(CO)o1 [5-HMF, 5-(hydroxymethyl)furfural]",Concentration of TNFα in PBMCs,[1]; 5-HMF 3 μg/ml,124.4 ± 15.2 pg/mL
same,Inhibition ratio of production of TNFα in PBMCs,[1]; 5-HMF 3 μg/ml,15.7 ± 10.3%
same,Concentration of TNFα in PBMCs,[1]; 5-HMF 10 μg/ml,107.9 ± 20.0 pg/mL
same,Inhibition ratio of production of TNFα in PBMCs,[1]; 5-HMF 10 μg/ml,26.8 ± 13.6%
same,Concentration of TNFα in PBMCs,[1]; 5-HMF 30 μg/ml,82.9 ± 27.9 pg/mL
same,Inhibition ratio of production of TNFα in PBMCs,[1]; 5-HMF 30 μg/ml,43.8 ± 18.9%
same,Concentration of TNFα in PBMCs,[1]; 5-HMF 100 μg/ml,39.3 ± 19.7 pg/mL
same,Inhibition ratio of production of TNFα in PBMCs,[1]; 5-HMF 100 μg/ml,73.4 ± 13.4%
same,Concentration of TNFα in PBMCs,[1]; 5-HMF 300 μg/ml,0.3 ± 6.4 pg/mL
same,Inhibition ratio of production of TNFα in PBMCs,[1]; 5-HMF 300 μg/ml,99.3 ± 4.3%
same,Inhibition of expression of TNFα (in words),[1]; [3],completely inhibited
same,Inhibition of expression of TNFα (in words),[1]; over the tested concentrations,concentration-dependent
same,Concentration of IL-1β in PBMCs,[2]; 5-HMF 3 μg/ml,69.9 ± 12.6 pg/mL
same,Inhibition ratio of production of IL-1β in PBMCs,[2]; 5-HMF 3 μg/ml,40.2 ± 10.8%
same,Concentration of IL-1β in PBMCs,[2]; 5-HMF 10 μg/ml,62.7 ± 10.5 pg/mL
same,Inhibition ratio of production of IL-1β in PBMCs,[2]; 5-HMF 10 μg/ml,46.4 ± 9.0%
same,Concentration of IL-1β in PBMCs,[2]; 5-HMF 30 μg/ml,40.1 ± 2.4 pg/mL
same,Inhibition ratio of production of IL-1β in PBMCs,[2]; 5-HMF 30 μg/ml,65.7 ± 2.0%
same,Concentration of IL-1β in PBMCs,[2]; 5-HMF 100 μg/ml,13.0 ± 3.7 pg/mL
same,Inhibition ratio of production of IL-1β in PBMCs,[2]; 5-HMF 100 μg/ml,88.8 ± 3.1%
same,Concentration of IL-1β in PBMCs,[2]; 5-HMF 300 μg/ml,0 ± 5.0 pg/mL
same,Inhibition ratio of production of IL-1β in PBMCs,[2]; 5-HMF 300 μg/ml,100 ± 4.3%
same,Inhibition of expression of IL-1β (in words),[2]; [3],completely inhibited
same,Inhibition of expression of IL-1β (in words),[2]; over the tested concentrations,concentration-dependent
"C[C@@H]1C[C@H]2[C@@H]3CCC4=CC(=O)C=C[C@]4(C)[C@@]3(F)[C@@H](O)C[C@]2(C)[C@@]1(O)C(=O)CO [DEX, dexamethason, reference compound]",Concentration of TNFα in PBMCs,[1]; 10 μM DEX,39.5 ± 9.0 pg/mL
same,Inhibition ratio of production of TNFα in PBMCs,[1]; 10 μM DEX,73.2 ± 6.1%
same,Concentration of IL-1β in PBMCs,[2]; 10 μM DEX,20.2 ± 7.0 pg/mL
same,Inhibition ratio of production of IL-1β in PBMCs,[2]; 10 μM DEX,82.7 ± 6.0%
